According to PubChem BioAssay AID434955 (Southern Research Specialized Biocontainment Screening …, 2010):

Tested on: M. tuberculosis H37Rv growth with meropenem, percent inhibition
Assay: beta-lactam sensitization of Mtb H37Rv, H37Rv (AID 434955)

| SMILES | IC90 [µM] |
| --- | --- |
| Cc1cccc(C)c1OCC(=O)NNC(=O)CNC(=O)c1ccc(OC(F)F)cc1 | 98.1 |
| COc1cc(C(=O)Nc2cccc(-c3cn4cccnc4n3)c2)cc(OC)c1OC | 30.2 |
| O=C(O)CSc1ncnc2c1sc1nc(-c3ccccc3)c3c(c12)CCC3 | 14.2 |
| O=S(=O)(Cc1ccccc1)c1cnc2ccccc2n1 | 48.6 |
| Cc1noc(NS(=O)(=O)c2ccc(N/C=C\C(=O)c3ccc4c(c3)OCO4)cc2)c1C | 86 |
| CCC(=O)N1CCN(c2ccc(NC(=S)NC(=O)c3ccc(OC)c([N+](=O)[O-])c3)cc2)CC1 | 67.8 |
| c1ccc(-c2n[nH]c3c2CCC3)cc1 | 46.3 |
| Cc1cc(C(=O)CN2C(=O)NC(C)(CC(C)C)C2=O)c(C)n1-c1ccc2c(c1)OCO2 (stereo unspecified) | 96.4 |
| C=C1C(=O)O[C@@H]2[C@H]1[C@@H](OC(=O)/C(C)=C/C)C/C(C)=C\C(=O)/C=C(\C)[C@@H]2O | 25.2 |
| Cc1[nH]n(-c2ccccc2)c(=O)c1/C=N/NC(=O)c1cccc([N+](=O)[O-])c1 | 70.7 |
| O=C(CCN1CCOCC1)c1ccc(N2CCCCC2)cc1 | 72.7 |
| CN1c2ccccc2C(=O)NC1c1ccc([N+](=O)[O-])s1 (stereo unspecified) | 33.3 |
| COc1cc(C(=O)Oc2cccnc2)cc(OC)c1OC | 13.6 |
| CCOC(=O)C1CSC(CC(=O)Nc2ccc(Cl)c(Cl)c2)C(=O)N1 (stereo unspecified) | 35.4 |
| O=c1oc(-c2ccccc2F)nc2scc(-c3ccccc3)c12 | 3.05 |
| COC(=O)C1=C(C)NC(=O)/C1=C\c1cc(C)n(-c2c(C)cccc2C)c1C | 99.8 |
| CCCOc1ccc(C(=O)N/N=C/c2ccc(-c3ccc(S(=O)(=O)Nc4ncccn4)cc3)o2)cc1 | 26.1 |
| CC(C)C[C@H](NC(=O)c1nc[nH]c1C(=O)N1CCN(C(=O)OC(C)(C)C)CC1)C(=O)OCc1ccccc1 | 54.9 |

| SMILES | IC90 [µM] |
| --- | --- |
| C=CCSc1nc2c(c(-c3ccsc3)c1C#N)CN(C)CC2 | 55.1 |
| Cn1c(SCC(=O)OC2CCCCC2)nnc1-c1ccc2c(c1)OCO2 | 34.9 |
| Cc1nnnn1/C(=C\c1ccccc1)C(=O)OCC(=O)NC1CCCCC1 | 17.6 |
| O=C(Oc1c(-c2ccccc2)c(=O)n2c3c(cccc13)CC2)c1ccc(F)cc1 | 34 |
| O=C(/C=C/c1ccc([N+](=O)[O-])cc1)c1cccs1 | 12.2 |
| COc1cc2nc(N3CCN(C(=O)OCc4ccccc4)[C@H](C(=O)NC(C)(C)C)C3)nc(N)c2cc1OC | 84 |
| CCCCCn1c(=O)c(C(=O)Nc2cnccn2)c(O)c2ccccc21 | 13.8 |
| CC(C)CC(=O)N1CCN(c2ccc([N+](=O)[O-])c(NCc3ccccc3)c2)CC1 | 48.6 |
| Cn1c(=O)c2ccccc2n2c(CCl)nnc12 | 4.65 |
| C=C(C)C(=O)O[C@H]1C/C(C)=C\C(=O)/C=C(\C)[C@H](O)[C@@H]2OC(=O)C(=C)[C@@H]21 | 31.3 |
| CO/N=C(\C(=O)N[C@@H]1C(=O)N2C(C(=O)O)=C(COC(C)=O)CS[C@H]12)c1csc(N)n1 (stereo in doubt) | 41.7 |
| CC(=O)Nc1cccc(/C(C)=N/NC(N)=S)c1 | 28.6 |
| Cc1ccc(C)c(CSc2nnc(C)c(=O)n2N)c1 | 20.4 |
| S=C(NN=C1C2CC3CC(C2)CC1C3)Nc1ccccc1 | 51.4 |
| c1ccc2c(c1)Cn1nc(Cc3nc4c(s3)CCCC4)nc1-2 | 53 |
| O=C(NCc1nc2ncc(Br)cc2[nH]1)c1ccccc1 | 54.9 |
| CC1CCc2c(sc(NC(=O)CCCn3cnc([N+](=O)[O-])n3)c2C(N)=O)C1 (stereo unspecified) | 90.4 |
| COC(=O)Cn1c2ccccc2c2nc(C)sc21 | 27.8 |
